In patent US6913767B1, “Compositions for microencapsulation of antigens for use as vaccines” (priority 1993, dated 2005):

Assay: Stability (intact fraction) of QS21
Format: physicochemical
Settings: same time (74 days), same conditions
Description: QS21 controls were also run. In RP-HPLC analysis, the rgp120 peak elutes before the QS21 peak and, therefore, this method provides simultaneous quantitation of QS21 and rgp120 released from the microspheres.
Microspheres containing QS21, or QS21 with MN rgp120, were incubated in physiological buffer at 37° C. to assess the time for release of the second burst.

## QS21
  intact QS21 in solution: less than 25%
